“And” between values parts separate entries of the source, which are not always exact repeats. Identical values can stand only once. Like-named read-outs stand apart in the source and are kept apart here.
How the values were obtained:
[1] = plasma pharmacokinetics by LC-MS/MS in patients; assay type: in vivo, human; details: human, plasma, oral, 300 mg, plasma; for AUC(0-t): read-out: AUClast of OKI-179; for Cmax: read-out: Cmax of OKI-179; for Tmax: read-out: Tmax of OKI-179
Experimental: Blood samples were collected immediately prior to the first dose on cycle 1 and day 1, and then at 0.25, 0.5, 1, 2, 4, 8, and 24 h after taking OKI-179 on days 1 and 15. Additional samples were collected pre-dose and 2 and 4 h after OKI-179 administration on day 18 in later cohorts. Blood samples were stabilized with sodium fluoride and formic acid immediately after collection to arrest the additional conversion of the prodrug OKI-179 to OKI-006. Plasma was further stabilized using ascorbic acid prior to low-temperature storage.
Plasma concentrations of OKI-179 and OKI-006 were analyzed using validated liquid chromatography-mass spectrometry (LC-MS/MS) (Quintara Discovery Inc., Hayward, CA, USA). OKI-006 contains a free thiol moiety that can reversibly react with endogenous molecules in the blood and tissue, resulting in “bound” OKI-006. The unreacted OKI-006 is considered “free”. As bound OKI-006 can reversibly convert to free OKI-006 in vivo, both the free and “total” (free plus bound) concentrations of OKI-006 are considered pharmacologically relevant and were therefore quantified as part of this study. Bioanalytically, the total OKI-006 was measured by chemically converting all bound OKI-006 to free OKI-006 prior to analysis using the free OKI-006 bioanalytical method.
The AUClast was calculated from time zero to the time of the last quantifiable concentration for OKI-179, free OKI-006, and total OKI-006.

advanced solid tumors = assay: antitumor activity by RECIST 1.1; assay type: in vivo, human
Source text: Patients were continuously evaluated for adverse events throughout the study using the Common Terminology Criteria of Adverse Events (CTCAE v. 5). The patients underwent a clinical history and physical examination, an ECOG PS, a complete blood count (CBCs), chemistry, coagulation studies, urinalysis, a serum pregnancy test (as applicable), a triplicate ECG, an ophthalmology examination, and baseline tumor assessment at screening. During cycle 1, weekly history and physical examination, CBC, chemistry, coagulation parameters, urinalysis, and triplicate ECGs were performed; in subsequent cycles, weekly labs were limited to a CBC. Repeat ophthalmology examinations were performed at cycle 3, day 1, and at the end of treatment. Repeat tumor assessment was performed every 2 cycles (6 weeks) in accordance with RECIST 1.1. Descriptive statistics were used for baseline characteristics, safety assessments, pharmacokinetic variables, exploratory assessments, and efficacy analysis, including the duration of response and time to progression. Tables were used to summarize the data across the cohort of patients and various dosing groups. Geometric means were used to calculate plasma concentration-time profiles. Fold changes from baseline were used to calculate acetylation.

[2] = 300-mg 5:2, Cycle 1 Day 15, geometric mean

CC(C)[C@H](N)C(=O)SCC/C=C/[C@@H]1CC(=O)NCc2nc(cs2)C(=O)NC(C)(C)C(=O)N[C@@H](C(C)C)C(=O)O1 [OKI-179, Bocodepsin]
AUC(0-t) ([1]; 300 mg 5:2 cohort, mean single-dose): 253 ng·h/mL | Cmax ([1]; 300-mg 5:2, Cycle 1 Day 1, geometric mean, N=6): 142 ng/mL | AUC(0-t) ([1]; 300-mg 5:2, Cycle 1 Day 1, geometric mean): 253 ng·h/mL | Tmax ([1]; 300-mg 5:2, Cycle 1 Day 1, median): 0.875 h | half-life ([1]; 300-mg 5:2, Cycle 1 Day 1, median, read-out: t1/2 of OKI-179 (converted)): 1.75 h | AUC(0-t) [1, 2]: 374 ng·h/mL | Cmax [1, 2]: 215 ng/mL | Tmax ([1]; 300-mg 5:2, Cycle 1 Day 15, median): 0.934 h | half-life ([1]; 300-mg 5:2, Cycle 1 Day 15, median, read-out: t1/2 of OKI-179 (converted)): 1.74 h | half-life ([1]; day 15, 300 mg 5:2, read-out: terminal half-life (t1/2) of OKI-179 (converted)): ~1.7 h | partial or complete response (advanced solid tumors; RECIST 1.1): No partial or complete response | stable disease as the best response (advanced solid tumors; heavily pretreated patient population): 39% | patients with stable disease for > 5 months (advanced solid tumors; in vivo): Six | time in the study with stable disease (advanced solid tumors; two patients with platinum-resistant serous ovarian cancer, one value each): 7.5 months and 14.7 months

From paper PMC10778198, “First-in-Human Dose-Escalation Study of the Novel Oral Depsipeptide Class I-Targeting HDAC Inhibitor Bocodepsin (OKI-179) in Patients with Advanced Solid Tumors” (Cancers, 2023)
